Assay results reported in patent US7846963B2, “2-oxo-heterocyclic compounds and the pharmaceutical compositions comprising the same” (Korea Research Institute of Bioscience and Biotechnology, priority 2003, dated 2010).

Columns and labels:
[1] = tested on: production of TNF-alpha in RAW 264.7 cells; assay: Inhibition of TNF-alpha production in LPS-treated RAW 264.7 cells, ELISA of culture supernatant; format: cell-based, mouse; set-up: TNF-alpha inhibition: scale not given here; settings: 24 hours, compounds up to 10 μM; for TNF-alpha inhibition: Table 23, LPS 0.3 μg/ml, IC50 unit not given; for IC50: Mus musculus, RAW264.7, Table 23, LPS 0.3 μg/ml, IC50 unit inferred
Procedure: To test the inhibiting activity of the compounds prepared from above Examples on the production of TNF-alpha, the concentration of TNF-alpha in the cell supernatant was measured.
(§1) Each 200 μl of RAW 264.7 cells (ATCC, USA), a mouse macrophage cell line was seeded onto each well of 96-well microtiter plate (Nunc, Sweden) to the concentration ranging from 1×10^6 cells/ml to 5×10^6 cells/ml, and incubated in DMEM (Dulbeco's modified eagles medium) media containing 5% FBS (fetal bovine serum) at 37° C. in 5% CO2 incubator.
(§2) Various concentrations of the compounds of the present invention ranging from […] to 10 μM and LPS (Sigma, USA) in the final concentration of 0.3 μg/ml were treated to activated cell simultaneously. The treated cells were cultured at 37° C. for 24 hours in 5% CO2 incubator and the cultured cells were collected after the cultivation
And then the concentration of TNF-alpha secreted from the culture supernatant of RAW 264.7 cells was determined by ELISA according to the manufacture's instruction (R&D Systems, Minneapolis, Minn.).
The result was shown in Table 23 (AA: IC50's<1, A: IC50's<5, B: IC50's<10, C: IC50's>10).

[2] = tested on: production of nitric oxide (NO) in RAW 264.7 cells; assay: Inhibition of NO (nitrite) production in LPS-activated RAW 264.7 macrophages, Griess reagent; format: cell-based, mouse; settings: Table 22, cited in b622 as nitrite/NO production result, LPS 0.3 μg/ml, 24 hours, compounds up to 10 μM, IC50 unit not given
Procedure: To test the inhibiting activity of the compounds prepared from above Examples 1 to 6 on the production of nitric oxide (NO) caused by activated macrophage by lipopolysaccharide (LPS), the amount of accumulated […] in the cells was determined as an indicator of NO production in the medium.
as §1
as §2, with “μg/ml to activate the cell” for “μg/ml”, “activate the” for “activated”, “cultivation.” for “cultivation”
And then, to the collected cell culture, an equal volume of Griess reagent (1% sulfanilamide, 0.1% naphthylethylenediamine dihydrochloride, and 2% phosphoric acid) was added and the culture was incubated at room temperature for 10 mins. The amount of nitrite production was determined by measuring the absorbance at 540 nm versus a NaNO2 standard curve. […]

Row | Structure (SMILES) | TNF-alpha inhibition [1] | NO production inhibition [2] | IC50 [1] [µM]
1 | Cc1ccc(CCN2CC=C(CCC(=O)NO)C2=O)cc1 [Example 39, N-hydroxy-3-[2-oxo-1-(2-p-tolyl-ethyl)-2,5-dihydro-1H-pyrrol-3-yl]-propionamide] | AAA | AAA | –
2 | O=C(CCC1=CCN(CCCc2ccc3ccccc3c2)C1=O)NO [Example 56, N-hydroxy-3-[1-(3-naphthalene-2-yl-propyl)-2-oxo-2,5-dihydro-1H-pyrrol-3-yl]-propionamide] | AAA | AAA | –
3 | CN1CCC=C(CCC(=O)NO)C1=O [Example 102, N-hydroxy-3-(1-methyl-2-oxo-1,2,5,6-tetrahydro-pyridin-3-yl)-propionamide] | – | – | < 1
4 | O=C(CCC1=CCCN(Cc2ccc3ccccc3c2)C1=O)NO [Example 103, N-hydroxy-3-(1-(naphthalene-2-yl-methyl)-2-oxo-1,2,5,6-tetrahydro-pyridin-3-yl)-propionamide] | – | – | < 5
5 | O=C(CCC1=CCCN(CCc2cccs2)C1=O)NO [Example 104, N-hydroxy-3-[2-oxo-1-(2-thiophen-2-yl-ethyl)-1,2,5,6-tetrahydro-pyridin-3-yl]-propionamide] | – | – | > 10
